Test results: patent US10662477B2, “Biomarkers and methods to predict response to inhibitors and uses thereof” (Millennium Pharmaceuticals, Inc., priority 2012, dated 2020)
Like-named read-outs stand apart in the source and are kept apart here.

Tests used:
NSCLC patients [1] = assay: BATTLE clinical trial Sorafenib arm, progression-free survival by Sorafenib PLSR model group; format: in vivo, human
Kidney cancer [2] = assay: Sorafenib phase III clinical trial on Kidney cancer; format: in vivo, human; details: Sorafenib vs. placebo
Kidney cancer [3] = details: phase III clinical trial, cited from earlier work
NSCLC patients [4] = assay: BATTLE clinical trial Erlotinib arm, progression-free survival by Erlotinib PLSR model group; format: in vivo, human
human melanoma tumors = assay: Melanoma explants (human tumor xenografts) in mice treated with MLN4924, tumor growth; format: in vivo; details: subcutaneous treatment
tumor xenografts = assay: Xenograft models of MLN4924 treatment, average plasma concentration needed for tumor stasis, sensitivity rank; format: in vivo, rats or mice; details: for C avg at stasis: average plasma concentration needed to reach tumor stasis; for Sensitivity Rank: rank of 1 is most sensitive, 16 is least sensitive

With `CNC(=O)c1cc(Oc2ccc(NC(=O)Nc3ccc(Cl)c(C(F)(F)F)c3)cc2)ccn1` [Sorafenib] the “median PFS survival” value (NSCLC patients [1]; marker-insensitive group (Sorafenib model), BATTLE Sorafenib arm) was 1.87 months, the “median PFS survival” value (NSCLC patients [1]; marker-sensitive group (Sorafenib model), BATTLE Sorafenib arm) was 4.53 months and the PFS survival benefit (NSCLC patients [1]; marker-sensitive group vs marker-resistant group, BATTLE Sorafenib arm) was 2.66 months. For the same compound, the Hazard-ratio (NSCLC patients [1]; marker-sensitive vs marker-resistant group, PFS, p-value 0.006) was 0.32, the PFS benefit (Kidney cancer [2]) was 2.77 month and the median survival (Kidney cancer [3]; Sorafenib arm (placebo 84 days)) was 167 days. The median survival (Kidney cancer [3]; Sorafenib arm, days converted to months (placebo 2.80)) was 5.57 months.
With `C#Cc1cccc(Nc2ncnc3cc(OCCOC)c(OCCOC)cc23)c1` [Erlotinib, N-(3-ethynylphenyl)-6,7-bis(2-methoxyethoxy) quinazolin-4-amine] the PFS (NSCLC patients [4]; Erlotinib-resistant patients (Erlotinib PLSR signature), BATTLE Erlotinib arm) was 1.84 month, the “median PFS” value (NSCLC patients [4]; Erlotinib-sensitive patient group (Erlotinib PLSR signature), BATTLE Erlotinib arm) was 3.84 month and the Hazard ratio (NSCLC patients [4]; Erlotinib-sensitive vs Erlotinib-resistant patient group, PFS, p-value 0.09) was 0.43.
For `NS(=O)(=O)OC[C@@H]1C[C@@H](n2ccc3c(N[C@H]4CCc5ccccc54)ncnc32)C[C@@H]1O` [MLN4924, ((1S,2S,4R)-4-{4-[(1S)-2,3-dihydro-1H-inden-1-ylamino]-7H-pyrrolo[2,3-d]pyrimidin-7-yl}-2-hydroxycyclopentyl)methyl sulphamate], the “Experimental Result with MLN4924 treatment” value (from here on “Experimental Result”) (human melanoma tumors; melanoma explant 1, tumor growth in mice) was “Sensitive”, the “Experimental Result” value (human melanoma tumors; melanoma explant 2, tumor growth in mice) was “Sensitive” and the “Experimental Result” value (human melanoma tumors; melanoma explant 3, tumor growth in mice) was “Sensitive”. The “Experimental Result” value (human melanoma tumors; melanoma explant 4, tumor growth in mice) was “Resistant”, the “Experimental Result” value (human melanoma tumors; melanoma explant 5, tumor growth in mice) was “Resistant” and the “Experimental Result” value (human melanoma tumors; melanoma explant 6, tumor growth in mice) was “Resistant”. The “Experimental Result” value (human melanoma tumors; melanoma explant 7, tumor growth in mice) was “Resistant”, the “Experimental Result” value (human melanoma tumors; melanoma explant 8, tumor growth in mice) was “Resistant” and the “Experimental Result” value (human melanoma tumors; melanoma explant 9, tumor growth in mice) was “Resistant”. The “Experimental Result” value (human melanoma tumors; melanoma explant 10, tumor growth in mice) was “Resistant”, the “C avg at stasis” value (tumor xenografts; A375 xenograft, melanoma) was 6.837 µg/mL and the “Sensitivity Rank” value (tumor xenografts; A375 xenograft) was 7. The “C avg at stasis” value (tumor xenografts; DLD-1 xenograft, colon adenocarcinoma) was 17.476 µg/mL, the “Sensitivity Rank” value (tumor xenografts; DLD-1 xenograft) was 16 and the “C avg at stasis” value (tumor xenografts; DU-145 xenograft, prostate cancer) was 9.365 µg/mL. For the same compound, the “Sensitivity Rank” value (tumor xenografts; DU-145 xenograft) was 11, the “C avg at stasis” value (tumor xenografts; HCT116 (grown in mouse) xenograft, colorectal carcinoma) was 1.983 µg/mL and the “Sensitivity Rank” value (tumor xenografts; HCT116 (grown in mouse) xenograft) was 2. For the same compound, the “C avg at stasis” value (tumor xenografts; HCT116 (grown in rat) xenograft, colorectal carcinoma) was 1.490 µg/mL, the “Sensitivity Rank” value (tumor xenografts; HCT116 (grown in rat) xenograft) was 1 and the “C avg at stasis” value (tumor xenografts; HL-60 xenograft, promyelocytic leukemia) was 2.023 µg/mL. The “Sensitivity Rank” value (tumor xenografts; HL-60 xenograft) was 3, the “C avg at stasis” value (tumor xenografts; HT29 xenograft, colon adenocarcinoma) was 7.171 µg/mL and the “Sensitivity Rank” value (tumor xenografts; HT29 xenograft) was 9. For the same compound, the “C avg at stasis” value (tumor xenografts; NCI-H69 xenograft, small cell lung cancer) was 6.868 µg/mL, the “Sensitivity Rank” value (tumor xenografts; NCI-H69 xenograft) was 8 and the “C avg at stasis” value (tumor xenografts; NCI-H82 xenograft, small cell lung cancer) was 5.316 µg/mL. The “Sensitivity Rank” value (tumor xenografts; NCI-H82 xenograft) was 5, the “C avg at stasis” value (tumor xenografts; NCI-H322M xenograft, non-small cell lung carcinoma) was 14.722 µg/mL and the “Sensitivity Rank” value (tumor xenografts; NCI-H322M xenograft) was 14. For the same compound, the “C avg at stasis” value (tumor xenografts; NCI-H460 xenograft, non-small cell lung carcinoma) was 17.070 µg/mL, the “Sensitivity Rank” value (tumor xenografts; NCI-H460 xenograft) was 15 and the “C avg at stasis” value (tumor xenografts; PC3 xenograft, prostate cancer) was 5.968 µg/mL. For the same compound, the “Sensitivity Rank” value (tumor xenografts; PC3 xenograft) was 6, the “C avg at stasis” value (tumor xenografts; PHTX-02B xenograft, Breast cancer) was 3.691 µg/mL and the “Sensitivity Rank” value (tumor xenografts; PHTX-02B xenograft) was 4. For the same compound, the “C avg at stasis” value (tumor xenografts; PHTX-50M xenograft, melanoma) was 8.501 µg/mL, the “Sensitivity Rank” value (tumor xenografts; PHTX-50M xenograft) was 10 and the “C avg at stasis” value (tumor xenografts; PHTX-51M xenograft, melanoma) was 11.588 µg/mL. The “Sensitivity Rank” value (tumor xenografts; PHTX-51M xenograft) was 13, the “C avg at stasis” value (tumor xenografts; SKOV3 xenograft, ovarian carcinoma) was 9.890 µg/mL and the “Sensitivity Rank” value (tumor xenografts; SKOV3 xenograft) was 12.
